Assay results as given in patent US20050031598A1, “Engineering three-dimensional tissue structures using differentiating embryonic stem cells” (priority 2002, published 2005).

Tests used:
Type in all cases: cell-based, human
[1] = tested on: differentiating hES cells (EB day 8); test: Histochemical and immunohistochemical staining of hES cell constructs on PLLA/PLGA scaffolds; conditions: scaffold constructs, two weeks; for alpha feto protein (AFP) and albumin staining: in comparison to the control
Method: (§1) For seeding in matrigel, 8-9 days-old EBs were trypsinized, and 0.8×10^6 cells were mixed in 25 μL of a 50% (vol/vol) media and matrigel (growth factor-reduced, BD Biosciences, Bedford, Mass.). EB media was supplemented with the following growth factors: TGF-β1 (2 ng/mL), activin-A (20 ng/mL), and IGF-I (10 ng/mL), (R&D Systems, Minneapolis, Minn.), and RA (300 ng/ml) (Sigma). The mixture was solidified in a 6-well Petri dish at 37° C. and then detached from the dish with sterile blades. 4 mL of each respective EB media was added. For seeding on scaffolds, 0.8×10^6 cells were seeded into each scaffold using 25 μL of a mixture containing 50% (vol/vol) of Growth Factor-Reduced Matrigel and the respective EB media. After seeding the cells, scaffolds were suspended in 6-well petri dishes in their respective media. For some experiments, scaffolds were soaked in 50 μg/mL of fibronectin (Sigma) for 1 hour and washed in PBS prior to direct cell seeding (without matrigel) in 25 μL of EB media.
(§2) Tissue constructs were fixed for 6 hours in 10% neutral buffered formalin, routinely processed, and embedded in paraffin. 5-μm thick transverse sections were placed on silanized slides for immunohistochemistry or staining with hematoxylin and eosin (H & E), trichrome, or Safranin O. Immunohistochemical staining was carried out using the Biocare Medical Universal HRP-DAB kit (Biocare Medical, Walnut Creek, Calif.) according to the manufacturer's instructions, with prior heat-treatment at 90° C. for 20 minutes in ReVeal buffer (Biocare Medical) for epitope recovery. The primary antibodies were mouse anti-human: desmin (1:150), alpha feto protein (1:2500), cytokeratin 7 (1:25), CD31 (1:20), albumin (1:100), vimentin (1:50), S100 (1:100) (all from Dako), anti-human βIII-tubulin (Sigma, 1:500), nestin (Transduction Laboratories, San Diego, Calif., 1:1000), CD34 (Labvision, Fremont, Calif., 1:20), SSEA4 (Hybridoma Bank, University of Iowa, Ames, 1:4), and Tra 1-60 (a gift from Peter Andrews, University of Sheffield, Sheffield, U.K., 1:10). Human and mouse tissues (Daks) were used as controls to ensure antibody specificity (FIG. 1). For proliferation studies, culture medium was incubated with […] of 5′-bromo-2′-deoxyuridine (BrdUrd) (Sigma) for 3 hours before fixation. Tissue sections were stained using mouse anti-BrdUrd antibodies (1:1000).

[2] = tested on: differentiating hES cells (EB day 8); test: RT-PCR gene expression analysis of hES cell constructs on PLLA/PLGA scaffolds; conditions: scaffold constructs, two weeks
Method: as §1
Total RNA was isolated by an RNEasy Mini Kit (Qiagen, Chatsworth, Calif.). […] For some gels including RNA amplified using a GADPH primer, semi-quantitative analysis was performed by measuring the mean pixel intensities of each band and normalizing the measured intensity to the mean pixel intensity of the GADPH band.

[3] = tested on: differentiating hES cells (EBs day 8); test: Differentiation of hES cells in matrigel alone; conditions: for shape of cell-matrigel structure: two weeks in suspension
Method: as §1, §2

hEBs (day 8) = test: Staining of hEBs incubated with growth factors; conditions: EBs conditioned with growth factor
Method: FIG. 4 includes light micrographs of 5-μm-thick sections taken from hEBs (day 8), incubated for additional 2 weeks with control medium (CON) or medium supplemented with retinoic acid (RA), or insulin-like growth factor (IGF), and stained with antibodies against human cytokeratin, α-feto-protein, and nestin (scale bars=200 μm.)
hES cells (H9 clone) were grown on mouse embryonic fibroblasts (Cell Essential, Boston, Mass.) in KnockOut Medium (Gibco-BRL, Gaithersburg, Md.), a modified version of Dulbeco's modified Eagle's medium optimized for ES cells, as described^5. To induce formation of EBs, hES cell colonies were dissociated with 1 mg/ml collagenase type IV and suspended in differentiation media without LIF and bFGF in Petri dishes^5.
(§3) Tissue constructs were fixed for 6 hours in 10% neutral buffered formalin, routinely processed, and embedded in paraffin. 5-μm thick transverse sections were placed on silanized slides for immunohistochemistry or staining with hematoxylin and eosin (H & E), trichrome, or Safranin O. Immunohistochemical staining was carried out using the Biocare Medical Universal HRP-DAB kit (Biocare Medical, Walnut Creek, Calif.) according to the manufacturer's instructions, with prior heat-treatment at 90° C. for 20 minutes in ReVeal buffer (Biocare Medical) for epitope recovery. […]

[4] = tested on: differentiating hES cells (EB day 8); test: Lumen diameters of tubulocystic structures lined by cytokeratin-positive epithelium in hES cell-scaffold constructs; conditions: scaffold constructs grown two weeks, IGF-I 10 ng/mL, mean ±SD; for percentage of lumens >40 μm of total number of lumens (tubulocystic structures): RA 300 ng/ml, control 65%±4
Method: as §1, §3
Constructs grown for two weeks in control medium or in the presence of IGF or RA were processed and stained with anti-cytokeratin antibody as described above. Tubulocystic structures were counted and lumen diameters measured and grouped (large>200 μm, medium (Med)>40 μm, small<[…], closed and multilayered lumens). The results, the mean values (±SD) of samples obtained in two different experiments performed in duplicate, were recorded as percentages of lumens in each group from total number of lumens in each sample.

Molecule: activin-A
- Safranin-O staining for glycosaminoglycans (cartilage extracellular matrix) [1]: did not induce formation of Safranin O-positive matrix
- alpha feto protein (AFP) and albumin staining [1]: high levels of alpha feto protein (AFP) and albumin throughout the sample
- expression of pancreatic gene PDX-1 ([2]; versus other growth factors): higher levels
- AFP expression/staining ([3]; two weeks): No AFP expression was observed
- cellular viability ([3]; two weeks): least cellular viability
- epithelial-lined tubular or cystic structures (histology) ([3]; two weeks): did not contain any such structures
- shape of cell-matrigel structure [3]: small, condensed spheres

Molecule: TGF-β: transforming growth factor beta, TGF-β1, 2 ng/mL (R&D Systems)
- Safranin-O staining for glycosaminoglycans (cartilage extracellular matrix) [1]: high levels of Safranin-O staining
- collagen formation (trichrome staining) [1]: induced mature collagen formation
- cartilage matrix protein (CMP) expression ([2]; compared to the other samples): higher levels
- Safranin-O staining of cartilage-derived GAG ([3]; two weeks): No Safanin-O staining
- epithelial-lined tubular or cystic structures (histology) ([3]; two weeks): did not contain any such structures
- safranin-O staining (hEBs (day 8)): no safranin-O staining was observed

Molecule: IGF: insulin growth factor IGF-I, 10 ng/mL (R&D Systems)
- percentage of lumens >40 μm of total number of lumens (tubulocystic structures) [4]: 84%±6
- percentage of lumens >200 μm of total number of lumens (tubulocystic structures) [4]: 10%±3
- Safranin-O staining for glycosaminoglycans (cartilage extracellular matrix) [1]: did not induce formation of Safranin O-positive matrix
- alpha feto protein (AFP) and albumin staining [1]: high levels of AFP and albumin in more defined areas
- AFP expression/staining ([3]; two weeks): some AFP staining could be observed
- epithelial-lined tubular or cystic structures (histology) ([3]; two weeks): occasional epithelial-lined tubular or cystic structures
- shape of cell-matrigel structure [3]: larger and less condensed

Molecule: CC1=C(/C=C/C(C)=C/C=C/C(C)=C/C(=O)O)C(C)(C)CCC1 [RA, retinoic acid, reference compound]
- percentage of lumens >40 μm of total number of lumens (tubulocystic structures) [4]: 25%±12
- increase in total percentage of cytokeratin-positive areas within the tissue ([1]; versus control medium, P<0.01): ~4 fold
